Converted amounts (≈) assume the structure as drawn. Like-named read-outs stand apart in the source and are kept apart here.
What was measured:
[1] = Pharmacokinetics of different forms in beagle dogs; type: in vivo; conditions: capsule, 3 mg/kg
Description: Animal subject: beagle dogs, male, weighed 8˜14 kg, 3 dogs/crystal form. Beagle dogs were purchased from Beijing Marshall Biotechnology Co. Ltd.
Administration: three test samples were prepared into capsules, at an administration dose of 3 mg/kg according to body weight of dog.
About 37.3 mg of an amorphous compound was weighed, and packaged into hollow capsules (three capsules in total, one capsule per dog).
Blood was collected 10 min, 30 min, 1 h, 2 h, 4 h, 6 h, 8 h, and 24 h after administration. Before blood collection, the animals were fixed, and whole blood (about 400 μL) was collected from vein of forelimb at each time point, and added to K2EDTA-containing anticoagulation tubes. The whole blood sample was centrifuged for 6 min at 4° C., 8000 rpm in a high speed centrifuge, and plasma was separated. Plasma needed to be prepared within 30 min after blood collection, and plasma was stored at −80° C. in a refrigerator.
The plasma samples were analyzed by protein precipitation: to plasma (50 μL), an internal standard Afatinib dimaleate (200 μL, 50 ng/mL acetonitrile solution) was added; the resultant mixture was vortexed at 1500 rpm for 3 min, and centrifuged at 12000 rpm for 5 min; to the supernatant (100 μL), water (100 μL) was added; the resultant mixture was mixed homogeneously under vortexing and analyzed by LC-MS/MS for blood concentration.
PK parameters were calculated by using Pharsight Phoenix 6.2 software.

[2] = Soluble property test in water; type: physicochemical
Description: (1) Soluble property test: to a test sample, adding a corresponding solvent dropwise in a small amount for several times, shaking in a 25° C. thermostat water bath until the sample was completely dissolved, and calculating the dissolved concentration, i.e., soluble property.

[3] = Solubility test (saturated solubility) in water; type: physicochemical
From the text: (2) Solubility test: to a suitable volume of water, adding a test sample until oversaturation occurred in the solution of the sample, vortexing, centrifuging, filtrating the supernatant and then diluting it to a suitable concentration, subjecting the sample to a liquid chromatographic instrument, and determining the saturated concentration of the sample (i.e., saturated solubility) by external standard method.

[4] = Stability of Crystal form I under influencing factor condition (high temperature of 60° C.); type: physicochemical
Description: A test sample was kept under influencing factor condition (a high temperature of 60° C.) for 30 d. Samples were separately taken at specified time points, and compared with the sample at Day 0. XRPD, relevant substances, contents, character, acidity, moisture content, and the like were determined. During the study, samples were packaged with plastic bags and sealed with aluminum foil outside.
(§1) In accordance with High Performance Liquid Chromatography in Appendix V D in Pharmacopoeia of the People's Republic of China (2010), samples at Day 0 were used as control samples, and samples were determined by external standard method.
(§2) In accordance with High Performance Liquid Chromatography in Appendix V D in Pharmacopoeia of the People's Republic of China (2010), samples were determined by area normalization method.
(§3) The moisture content was determined in accordance with First Method for Determining Moisture Content B (Coulometric Titration) in Appendix VIII M in Pharmacopoeia of the People's Republic of China (2010).

[5] = Stability of Crystal form I under accelerated condition and long-term condition; type: physicochemical
Description: Test samples were kept under accelerated condition (40° C.+RH 75%) for 6 months. Samples were separately taken at specified time points. XRPD, character, relevant substances, content, acidity, moisture content and the like were studied.
Test samples were kept under long-term condition (25° C.) for 6 months. Samples were separately taken at specified time points. Important items of stability (relevant substances) were studied.
At the last time point of the accelerated condition and long-term condition, XRPD, character, relevant substances, content, pH, moisture content and the like were studied.
as §1, §2, §3

[6] = as above; type: physicochemical; conditions: 30° C. 1 month
[7] = Stability of Crystal form II under influencing factor condition; type: physicochemical
Description: Test samples in culture dishes were left uncovered. The test samples, which were kept under influencing factor conditions (a high temperature of 60° C., 25° C.-high moisture RH 75%, and 25° C.-high moisture RH 92.5%, under the condition of light) for 5 days and 10 days, were studied for stability; and the test samples which were kept at 40° C. for 5 days, 10 days and 30 days, and the test samples which were kept at 25° C. for 30 days and 90 days, were studied for stability. Samples were separately taken at specified time points, and the items (moisture content (Coulomb), relevant substances, XRPD) were studied. In accordance with High Performance Liquid Chromatography in Appendix V D in Pharmacopoeia of the People's Republic of China (2010), samples were determined by area normalization method. The moisture content was determined in accordance with First Method for Determining Moisture Content B (Coulometric Titration) in Appendix VIII M in Pharmacopoeia of the People's Republic of China (2010).

EGFR = EGFR (Homo sapiens, UniProt P00533); conditions: disclosed in WO2012027960A1; cited from earlier work
HER2 = HER2 (Homo sapiens, UniProt P04626); conditions: disclosed in WO2012027960A1; cited from earlier work
HER4 = HER4 (Homo sapiens, UniProt Q15303); conditions: disclosed in WO2012027960A1; cited from earlier work
[8] = test system: erlotinib-resistant H1975 cell line; conditions: cited from earlier work
[9] = RH75% 5 days, 25° C., uncovered
[10] = RH75% 10 days, 25° C., uncovered
[11] = RH92.5% 5 days, 25° C., uncovered
[12] = RH92.5% 10 days, 25° C., uncovered

Chain of HER2 (P04626 23-1255): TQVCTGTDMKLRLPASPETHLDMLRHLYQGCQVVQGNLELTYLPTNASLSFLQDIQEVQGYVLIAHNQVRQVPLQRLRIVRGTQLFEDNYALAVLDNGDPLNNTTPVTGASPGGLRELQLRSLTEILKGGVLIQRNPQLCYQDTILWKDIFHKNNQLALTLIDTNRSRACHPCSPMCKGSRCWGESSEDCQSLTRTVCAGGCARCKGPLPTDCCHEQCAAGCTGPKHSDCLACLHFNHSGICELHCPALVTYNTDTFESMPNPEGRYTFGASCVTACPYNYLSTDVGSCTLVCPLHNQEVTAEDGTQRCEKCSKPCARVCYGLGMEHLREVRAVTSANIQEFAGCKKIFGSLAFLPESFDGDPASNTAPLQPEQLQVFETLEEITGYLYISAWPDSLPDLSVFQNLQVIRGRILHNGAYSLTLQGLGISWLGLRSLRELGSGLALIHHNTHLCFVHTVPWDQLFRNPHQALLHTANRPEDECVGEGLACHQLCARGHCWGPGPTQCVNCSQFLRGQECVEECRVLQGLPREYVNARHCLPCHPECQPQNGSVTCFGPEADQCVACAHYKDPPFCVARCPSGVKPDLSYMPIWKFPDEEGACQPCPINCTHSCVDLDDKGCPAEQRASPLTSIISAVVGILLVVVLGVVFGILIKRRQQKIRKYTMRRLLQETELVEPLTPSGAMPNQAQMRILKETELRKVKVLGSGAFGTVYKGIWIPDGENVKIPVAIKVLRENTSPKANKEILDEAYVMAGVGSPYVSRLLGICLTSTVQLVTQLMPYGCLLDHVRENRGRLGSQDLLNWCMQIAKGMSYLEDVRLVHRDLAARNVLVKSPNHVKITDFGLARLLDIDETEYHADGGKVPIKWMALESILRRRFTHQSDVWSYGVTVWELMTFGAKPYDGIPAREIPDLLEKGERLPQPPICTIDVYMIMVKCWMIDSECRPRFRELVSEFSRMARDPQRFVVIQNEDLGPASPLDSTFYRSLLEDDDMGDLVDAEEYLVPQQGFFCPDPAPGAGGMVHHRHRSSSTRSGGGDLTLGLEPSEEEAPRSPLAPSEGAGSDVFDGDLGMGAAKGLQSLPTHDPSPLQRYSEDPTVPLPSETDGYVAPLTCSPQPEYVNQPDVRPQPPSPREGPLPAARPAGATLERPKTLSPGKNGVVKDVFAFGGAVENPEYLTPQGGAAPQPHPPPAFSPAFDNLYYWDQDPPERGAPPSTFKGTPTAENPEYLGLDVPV
Chain of HER4 (Q15303 26-1308): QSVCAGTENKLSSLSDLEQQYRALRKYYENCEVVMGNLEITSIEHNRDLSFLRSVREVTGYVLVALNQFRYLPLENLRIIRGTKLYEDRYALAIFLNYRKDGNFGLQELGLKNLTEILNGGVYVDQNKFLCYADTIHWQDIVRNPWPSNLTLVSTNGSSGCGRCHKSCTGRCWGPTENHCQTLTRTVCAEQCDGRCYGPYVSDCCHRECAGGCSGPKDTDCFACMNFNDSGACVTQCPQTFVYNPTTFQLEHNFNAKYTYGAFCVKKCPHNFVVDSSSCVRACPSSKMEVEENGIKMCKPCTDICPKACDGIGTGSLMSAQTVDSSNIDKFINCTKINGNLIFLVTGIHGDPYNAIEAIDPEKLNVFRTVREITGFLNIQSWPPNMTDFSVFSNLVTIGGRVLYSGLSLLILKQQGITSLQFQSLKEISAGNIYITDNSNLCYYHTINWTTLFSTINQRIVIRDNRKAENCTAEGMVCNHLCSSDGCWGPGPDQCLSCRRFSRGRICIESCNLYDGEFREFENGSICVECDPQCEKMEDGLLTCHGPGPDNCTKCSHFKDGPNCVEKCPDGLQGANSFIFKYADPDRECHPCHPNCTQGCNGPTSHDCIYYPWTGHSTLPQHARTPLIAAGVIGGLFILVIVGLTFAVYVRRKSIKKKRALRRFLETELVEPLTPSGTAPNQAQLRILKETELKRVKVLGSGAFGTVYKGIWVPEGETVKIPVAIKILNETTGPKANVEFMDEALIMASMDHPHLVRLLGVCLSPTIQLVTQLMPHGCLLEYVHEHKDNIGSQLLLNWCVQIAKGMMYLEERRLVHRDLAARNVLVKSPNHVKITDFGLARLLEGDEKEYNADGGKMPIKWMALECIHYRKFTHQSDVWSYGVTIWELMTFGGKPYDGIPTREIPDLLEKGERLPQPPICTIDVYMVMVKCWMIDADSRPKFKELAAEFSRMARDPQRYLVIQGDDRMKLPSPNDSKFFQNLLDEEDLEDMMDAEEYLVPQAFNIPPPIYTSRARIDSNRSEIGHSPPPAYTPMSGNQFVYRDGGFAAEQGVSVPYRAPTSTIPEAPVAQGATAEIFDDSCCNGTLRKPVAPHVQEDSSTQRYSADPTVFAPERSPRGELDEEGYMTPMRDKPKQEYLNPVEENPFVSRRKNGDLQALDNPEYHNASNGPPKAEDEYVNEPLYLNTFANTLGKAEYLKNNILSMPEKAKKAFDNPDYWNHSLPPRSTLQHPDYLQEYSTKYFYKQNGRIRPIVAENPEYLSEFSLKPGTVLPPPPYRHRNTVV
Chain of EGFR (P00533 25-1210): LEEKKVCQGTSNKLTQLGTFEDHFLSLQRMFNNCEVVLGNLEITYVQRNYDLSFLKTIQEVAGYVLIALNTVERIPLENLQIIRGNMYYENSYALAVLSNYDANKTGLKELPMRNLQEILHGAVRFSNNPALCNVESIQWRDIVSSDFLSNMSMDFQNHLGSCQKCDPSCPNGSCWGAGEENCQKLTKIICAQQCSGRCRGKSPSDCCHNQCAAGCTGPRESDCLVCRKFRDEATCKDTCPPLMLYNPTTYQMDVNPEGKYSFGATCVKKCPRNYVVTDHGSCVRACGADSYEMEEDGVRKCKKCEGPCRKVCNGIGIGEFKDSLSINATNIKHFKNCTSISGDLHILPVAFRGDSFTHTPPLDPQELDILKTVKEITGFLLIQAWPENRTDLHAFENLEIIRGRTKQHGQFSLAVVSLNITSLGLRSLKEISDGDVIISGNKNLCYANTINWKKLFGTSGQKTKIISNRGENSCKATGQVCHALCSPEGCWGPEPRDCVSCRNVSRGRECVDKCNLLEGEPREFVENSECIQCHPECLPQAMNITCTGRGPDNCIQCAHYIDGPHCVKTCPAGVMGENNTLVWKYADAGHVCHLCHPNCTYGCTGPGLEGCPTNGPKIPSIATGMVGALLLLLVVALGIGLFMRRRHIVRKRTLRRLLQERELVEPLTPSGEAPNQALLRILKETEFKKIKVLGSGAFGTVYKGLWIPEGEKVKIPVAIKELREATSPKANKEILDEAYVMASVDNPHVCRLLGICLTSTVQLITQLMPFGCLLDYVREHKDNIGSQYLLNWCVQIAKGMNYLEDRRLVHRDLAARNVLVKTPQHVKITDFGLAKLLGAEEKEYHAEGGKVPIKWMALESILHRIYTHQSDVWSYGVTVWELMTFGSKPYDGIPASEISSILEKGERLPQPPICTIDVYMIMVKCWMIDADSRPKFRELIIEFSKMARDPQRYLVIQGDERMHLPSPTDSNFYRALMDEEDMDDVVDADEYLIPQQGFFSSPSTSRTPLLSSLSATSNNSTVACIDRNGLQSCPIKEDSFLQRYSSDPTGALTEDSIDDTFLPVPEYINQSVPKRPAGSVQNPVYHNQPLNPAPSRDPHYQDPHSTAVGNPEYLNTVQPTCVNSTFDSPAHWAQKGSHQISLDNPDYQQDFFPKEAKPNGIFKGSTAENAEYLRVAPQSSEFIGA

C=CC(=O)Nc1cc2c(Nc3ccc(F)c(Cl)c3)ncnc2cc1OCC1CC2(CCN(C)CC2)C1 [Amorphous form, N-(4-((3-chloro-4-fluorophenyl)amino)-7-((7-methyl-7-azaspiro[3.5]nonan-2-yl)methoxy)quinazolin-6-yl)acrylamide]
AUC0-t [1]: 68.6 ng·h/mL
AUCinf [1]: 79.9 ng·h/mL
Cmax [1]: 16.6 ng/mL
T1/2 [1]: 2.47 h
Tmax [1]: 2.00 h

C=CC(=O)Nc1cc2c(Nc3ccc(F)c(Cl)c3)ncnc2cc1OCC1CC2(CCN(C)CC2)C1 [Crystal form I, N-(4-((3-chloro-4-fluorophenyl)amino)-7-((7-methyl-7-azaspiro[3.5]nonan-2-yl)methoxy)quinazolin-6-yl)acrylamide]
Soluble property (descriptive term) ([2]; 25° C.): slightly soluble, (soluble
solubility ([2]; 25 °C, thermodynamic from solid): 20 mg/mL (≈ 39.2 mM)
solubility ([3]; thermodynamic from solid): 39.1 mg/mL (≈ 76.7 mM)
T1/2 [1]: 4.95 h
AUC(0-inf) ([1]; male, beagle, dog, plasma, po): 115 ng·h/mL
AUC0-t ([1]; male, beagle, dog, plasma, po, read-out: AUC0-t): 112 ng·h/mL
Cmax ([1]; male, beagle, dog, plasma, po, read-out: Cmax): 15.3 ng/mL
Tmax ([1]; male, dog, plasma, po, read-out: Tmax): 2 h
Content ([4]; 0 day): 100.8%
Moisture content ([4]; 0 day): 3.9%
Relevant substances ([4]; 0 day): 0.15%
pH ([4]; 0 day): 2.8
Content ([4]; 60° C.-covered-1 month): 100.7%
Moisture content ([4]; 60° C.-covered-1 month): 4.4%
Relevant substances ([4]; 60° C.-covered-1 month): 0.20%
pH ([4]; 60° C.-covered-1 month): 2.8
Content ([4]; 60° C.-covered-5 days): 100.9%
Moisture content ([4]; 60° C.-covered-5 days): 4.5%
Relevant substances ([4]; 60° C.-covered-5 days): 0.23%
pH ([4]; 60° C.-covered-5 days): 2.8
Content ([4]; 60° C.-covered-10 days): 100.7%
Moisture content ([4]; 60° C.-covered-10 days): 4.5%
Relevant substances ([4]; 60° C.-covered-10 days): 0.24%
pH ([4]; 60° C.-covered-10 days): 2.7
Overall stability conclusion ([4]; kept under various conditions for 1 month (Tables 3 and 4)): high stability
Content ([5]; 0 day): 100.8%
Moisture content ([5]; 0 day): 3.9%
Relevant substances ([5]; 0 day): 0.15%
pH ([5]; 0 day): 2.8
Content ([5]; 25° C. 1 month): 100.7%
Moisture content ([5]; 25° C. 1 month): 4.2%
Relevant substances ([5]; 25° C. 1 month): 0.18%
pH ([5]; 25° C. 1 month): 2.8
Content ([5]; 40° C. 1 month): 100.9%
Moisture content ([5]; 40° C. 1 month): 4.6%
Relevant substances ([5]; 40° C. 1 month): 0.19%
pH ([5]; 40° C. 1 month): 2.8
Content [6]: 100.8%
Moisture content [6]: 4.3%
Relevant substances [6]: 0.18%
pH [6]: 2.8

C=CC(=O)Nc1cc2c(Nc3ccc(F)c(Cl)c3)ncnc2cc1OCC1CC2(CCN(C)CC2)C1 [Crystal form II, N-(4-((3-chloro-4-fluorophenyl)amino)-7-((7-methyl-7-azaspiro[3.5]nonan-2-yl)methoxy)quinazolin-6-yl)acrylamide]
Soluble property ([2]; 25° C.): property: 23.23) mg/mL
Soluble property (descriptive term) ([2]; 25° C.): slightly soluble, (soluble
Solubility (saturated solubility) [3]: solubility: 28.94 mg/mL
AUC0-t [1]: 110 ng·h/mL
AUCinf [1]: 111 ng·h/mL
Cmax [1]: 14.6 ng/mL
T1/2 [1]: 3.98 h
Tmax [1]: 2.00 h
Moisture content ([7]; 0 day): 13.1%
Relevant substances ([7]; 0 day): 1.2%
Moisture content ([7]; 25° C. 3 months, uncovered): 13.4%
Relevant substances ([7]; 25° C. 3 months, uncovered): 1.3%
Moisture content ([7]; 25° C. 30 days, uncovered): 13.1%
Relevant substances ([7]; 25° C. 30 days, uncovered): 1.3%
Crystal form XRPD ([7]; 40° C. 5 days, uncovered): Crystal form I
Moisture content ([7]; 40° C. 5 days, uncovered): 4.5%
Relevant substances ([7]; 40° C. 5 days, uncovered): 1.3%
Crystal form XRPD ([7]; 40° C. 10 days, uncovered): Crystal form I
Moisture content ([7]; 40° C. 10 days, uncovered): 5.6%
Relevant substances ([7]; 40° C. 10 days, uncovered): 1.6%
Crystal form XRPD ([7]; 40° C. 30 days, uncovered): Crystal form I
Moisture content ([7]; 40° C. 30 days, uncovered): 5.3%
Relevant substances ([7]; 40° C. 30 days, uncovered): 3.0%
Crystal form XRPD ([7]; 60° C. 5 days, uncovered): Crystal form I
Moisture content ([7]; 60° C. 5 days, uncovered): 4.4%
Relevant substances ([7]; 60° C. 5 days, uncovered): 1.8%
Crystal form XRPD ([7]; 60° C. 10 days, uncovered): Crystal form I
Moisture content ([7]; 60° C. 10 days, uncovered): 5.3%
Relevant substances ([7]; 60° C. 10 days, uncovered): 2.3%
Moisture content ([7]; Light 5 days, uncovered): 13.2%
Relevant substances ([7]; Light 5 days, uncovered): 1.5%
Moisture content ([7]; Light 10 days, uncovered): 13.3%
Relevant substances ([7]; Light 10 days, uncovered): 1.8%
Moisture content [7, 9]: 13.2%
Relevant substances [7, 9]: 1.3%
Moisture content [7, 10]: 13.3%
Relevant substances [7, 10]: 1.3%
Moisture content [7, 11]: 13.4%
Relevant substances [7, 11]: 1.2%
Moisture content [7, 12]: 13.5%
Relevant substances [7, 12]: 1.3%
Overall stability conclusion ([7]; Table 5 conditions): sensitive to high temperature conditions

C=CC(=O)Nc1cc2c(Nc3ccc(F)c(Cl)c3)ncnc2cc1OCC1CC2(CCN(C)CC2)C1 [Formula (I), N-(4-((3-chloro-4-fluorophenyl)amino)-7-((7-methyl-7-azaspiro[3.5]nonan-2-yl)methoxy)quinazolin-6-yl)acrylamide]
Inhibition of EGFR (EGFR): effectively inhibit EGFR
Inhibitory effect on HER2 (HER2): inhibitory effect
Inhibitory effect on HER4 (HER4): inhibitory effect
Inhibitory effect on H1975 cell line [8]: significantly inhibitory effect

Reference: patent US10633364B2, “Crystals of quinazoline derivative and preparation method therefor” (Xuanzhu Pharma Co., Ltd., priority 2015, dated 2020)
